Data: patent publication US9290453B2 (Merck Sharp & Dohme Corp., priority 2010, dated 2016)

Biological target: T1, hCRTH2 (Homo sapiens, UniProt Q9Y5Y4)
T1 construct: expressed in transfected cells; host or cells: HEK (human embryonic kidney) cells expressing hCRTH2
T1 sequence (Q9Y5Y4 1-395): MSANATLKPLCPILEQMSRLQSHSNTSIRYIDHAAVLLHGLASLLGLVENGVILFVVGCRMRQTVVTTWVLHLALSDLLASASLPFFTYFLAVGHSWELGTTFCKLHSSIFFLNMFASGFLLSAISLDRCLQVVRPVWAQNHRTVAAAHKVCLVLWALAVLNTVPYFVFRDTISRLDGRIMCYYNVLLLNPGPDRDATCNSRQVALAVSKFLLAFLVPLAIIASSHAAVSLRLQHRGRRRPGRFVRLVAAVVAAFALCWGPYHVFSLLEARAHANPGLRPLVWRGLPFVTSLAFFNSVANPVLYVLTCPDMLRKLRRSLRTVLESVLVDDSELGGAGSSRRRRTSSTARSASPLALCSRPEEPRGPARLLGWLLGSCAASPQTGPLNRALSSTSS
Test: Radioligand Binding Assay A ([3H]PGD2 filtration binding, HEK-hCRTH2 membranes)
Conditions: Table A, rated A-D
In short: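 Membranes from HEK-hCRTH2 cells (8-20 μg) incubated 60 min at room temperature with 3.0 nM [3H]PGD2 in 50 mM Tris-HCl pH 7.4, 1 mM EDTA, 2 mM MnCl2, 1% Me2SO. Non-specific binding defined with 10 μM PGD2; bound radioactivity counted after filtration.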

`O=C(O)CCCCc1cc2cc(C(=O)N[C@H]3CCCc4cc(Cl)ccc43)ccc2nc1-c1ccc(F)cc1` [Compound 5S, 6-[[(6-chloro-1,2,3,4-tetrahydro-1(S)-naphthalenyl)amino]carbonyl]-2-(4-fluorophenyl)-3-quinolinepentanoic acid] and `O=C(O)CCCCc1cc2cc(C(=O)N[C@@H]3CCc4cc(Cl)ccc43)ccc2nc1-c1ccc(F)cc1` [Compound 5o, 6-[[(5-chloro-2,3-dihydro-1H-inden-1(R)-yl)amino]carbonyl)-2-(4-fluorophenyl)-3-quinolinepentanoic acid] fall in the same range of Ki: 2.1 to 20 nM for the first, 2.1 to 20 nM for the second.

First: N#Cc1ccc([C@H](NC(=O)c2ccc3nc(-c4ccc(F)cc4)c(CCCCC(=O)O)cc3c2)C(F)(F)F)cc1 [Compound 5T]
Second: C[C@H](NC(=O)c1ccc2nc(-c3ccc(F)cc3)c(CCCCC(=O)O)cc2c1)c1ccc(Cl)cc1 [Compound 5i]
The Ki of the first is higher: 20.1 to 200 nM for the first, 2.1 to 20 nM for the second. The second binds more tightly here.

`CN(Cc1ccc(Cl)cc1)C(=O)c1ccc2nc(-c3ccc(F)cc3)c(CCCCC(=O)O)cc2c1` [Compound 5U, 6-[[[(4-chlorophenyl)methyl]methylamino]carbonyl]-2-(4-fluorophenyl)-3-quinolinepentanoic acid] and `CN(Cc1ccc(C(F)(F)F)cc1)C(=O)c1ccc2nc(-c3ccc(F)cc3)c(CCCCC(=O)O)cc2c1` [Compound 5V, 2-(4-fluorophenyl)-6-[[methyl[[4-(trifluoromethyl)phenyl]methyl]amino]carbonyl]-3-quinolinepentanoic acid] fall in the same range of Ki: 2.1 to 20 nM for the first, 2.1 to 20 nM for the second.

Compared with `CN(Cc1cccc(C(F)(F)F)c1)C(=O)c1ccc2nc(-c3ccc(F)cc3)c(CCCCC(=O)O)cc2c1` [Compound 5W, 2-(4-fluorophenyl)-6-[[methyl[[3-(trifluoromethyl)phenyl]methyl]amino]carbonyl]-3-quinolinepentanoic acid], `C[C@@H](NC(=O)c1ccc2nc(-c3ccc(F)cc3)c(CCCCC(=O)O)cc2c1)c1cc(Cl)cc(Cl)c1` [Compound 5X, 6-[[[1(R)-(3,5-dichlorophenyl)ethyl]amino]carbonyl]-2-(4-fluorophenyl)-3-quinolinepentanoic acid] is lower in Ki: 20.1 to 200 nM for the first, 2.1 to 20 nM for the second.

First: C[C@H](NC(=O)c1ccc2nc(-c3ccc(F)cc3)c(CCCCC(=O)O)cc2c1)c1cc(Cl)cc(Cl)c1 [Compound 5Y, 6-[[[1(S)-(3,5-dichlorophenyl)ethyl]amino]carbonyl]-2-(4-fluorophenyl)-3-quinolinepentanoic acid]
Second: C[C@@H](NC(=O)c1cnc2nc(-c3ccc(F)cc3)c(CCCCC(=O)O)cc2c1)c1ccc(Cl)cc1 [Compound 6, 6-[[[1(R)-(4-chlorophenyl)ethyl]amino]carbonyl]-2-(4-fluorophenyl)-1,8-naphthyridine-3-pentanoic acid]
The Ki of the first is lower: 2.1 to 20 nM for the first, 20.1 to 200 nM for the second. The first binds more tightly here.

`C[C@@H](NC(=O)c1cnc2nc(-c3ccc(F)cc3)c(CCCCC(=O)O)cc2c1)c1ccc(F)cc1` [Compound 6D, 2-(4-fluorophenyl)-6-[[[1(R)-(4-fluorophenyl)ethyl]amino]carbonyl]-1,8-naphthyridine-3-pentanoic acid] and `C[C@H](NC(=O)c1cnc2nc(-c3ccc(F)cc3)c(CCCCC(=O)O)cc2c1)c1ccc(F)cc1` [Compound 6K, 2-(4-fluorophenyl)-6-[[[1(S)-(4-fluorophenyl)ethyl]amino]carbonyl]-1,8-naphthyridine-3-pentanoic acid] fall in the same range of Ki: 20.1 to 200 nM for the first, 20.1 to 200 nM for the second.

`O=C(O)CCCCc1cc2cc(C(=O)N[C@@H]3CCc4cc(Cl)ccc43)cnc2nc1-c1ccc(F)cc1` [Compound 6E, 6-[[(5-chloro-2,3-dihydro-1H-inden-1(R)-yl)amino]carbonyl]-2-(4-fluorophenyl)-1,8-naphthyridine-3-pentanoic acid] and `O=C(O)CCCCc1cc2cc(C(=O)N[C@H]3CCc4cc(Cl)ccc43)cnc2nc1-c1ccc(F)cc1` [Compound 6L, 6-[[(5-chloro-2,3-dihydro-1H-inden-1(S)-yl)amino]carbonyl]-2-(4-fluorophenyl)-1,8-naphthyridine-3-pentanoic acid] fall in the same range of Ki: 2.1 to 20 nM for the first, 2.1 to 20 nM for the second.

`O=C(O)CCCCc1cc2cc(C(=O)N[C@@H]3CCc4ccc(F)cc43)cnc2nc1-c1ccc(F)cc1` [Compound 6F, 6-[[(6-fluoro-2,3-dihydro-1H-inden-1(R)-yl)amino]carbonyl]-2-(4-fluorophenyl)-1,8-naphthyridine-3-pentanoic acid] and `O=C(O)CCCCc1cc2cc(C(=O)N[C@H]3CCc4ccc(F)cc43)cnc2nc1-c1ccc(F)cc1` [Compound 6M, 6-[[(6-fluoro-2,3-dihydro-1H-inden-1(S)-yl)amino]carbonyl]-2-(4-fluorophenyl)-1,8-naphthyridine-3-pentanoic acid] fall in the same range of Ki: 20.1 to 200 nM for the first, 20.1 to 200 nM for the second.

First: O=C(O)CCCCc1cc2cc(C(=O)N[C@@H]3CCCc4cc(Cl)ccc43)cnc2nc1-c1ccc(F)cc1 [Compound 6G, 6-[[(6-chloro-1,2,3,4-tetrahydro-1(R)-naphthalenyl)amino)carbonyl]-2-(4-fluorophenyl)-1,8-naphthyridine-3-pentanoic acid]
Second: O=C(O)CCCCc1cc2cc(C(=O)N[C@H]3CCCc4cc(Cl)ccc43)cnc2nc1-c1ccc(F)cc1 [Compound 6N, 6-[[(6-chloro-1,2,3,4-tetrahydro-1(S)-naphthalenyl)amino]carbonyl]-2-(4-fluorophenyl)-1,8-naphthyridine-3-pentanoic acid]
The Ki of the first is lower: 2.1 to 20 nM for the first, 20.1 to 200 nM for the second. The first binds more tightly here.

`O=C(O)CCCCc1cc2cc(C(=O)N[C@@H]3CCCc4ccc(F)cc43)cnc2nc1-c1ccc(F)cc1` [Compound 6H, 2-(4-fluorophenyl)-6-[[(7-fluoro-1,2,3,4-tetrahydro-1(R)-naphthalenyl)amino]carbonyl]-1,8-naphthyridine-3-pentanoic acid] and `O=C(O)CCCCc1cc2cc(C(=O)N[C@H]3CCCc4ccc(F)cc43)cnc2nc1-c1ccc(F)cc1` [Compound 6o, 2-(4-fluorophenyl)-6-[[(7-fluoro-1,2,3,4-tetrahydro-1(S)-naphthalenyl)amino]carbonyl]-1,8-naphthyridine-3-pentanoic acid] fall in the same range of Ki: 20.1 to 200 nM for the first, 20.1 to 200 nM for the second.

`C[C@H](NC(=O)c1cnc2nc(-c3ccc(F)cc3)c(CCCCC(=O)O)cc2c1)c1ccc(Cl)cc1` [Compound 6J, 6-[[[1(S)-(4-chlorophenyl)ethyl]amino]carbonyl]-2-(4-fluorophenyl)-1,8-naphthyridine-3-pentanoic acid] and `COc1ccc([C@H](NC(=O)c2cnc3nc(-c4ccc(F)cc4)c(CCCCC(=O)O)cc3c2)C(F)(F)F)cc1` [Compound 6P, 2-(4-fluorophenyl)-6-[[[2,2,2-trifluoro-1(S)-(4-methoxyphenyl)ethyl]amino]carbonyl]-1,8-naphthyridine-3-pentanoic acid] fall in the same range of Ki: 20.1 to 200 nM for the first, 20.1 to 200 nM for the second.

`O=C(O)CCCCc1cc2cc(C(=O)N[C@H](c3cc(Cl)cc(Cl)c3)C(F)(F)F)cnc2nc1-c1ccc(F)cc1` [Compound 6Q, 6-[[[1(R)-(3,5-dichlorophenyl)-2,2,2-trifluoroethyl]amino]carbonyl]-2-(4-fluorophenyl)-1,8-naphthyridine-3-pentanoic acid] and `O=C(O)CCCCc1cc2cc(C(=O)N[C@@H](c3cc(Cl)cc(Cl)c3)C(F)(F)F)cnc2nc1-c1ccc(F)cc1` [Compound 6R, 6-[[[1(S)-(3,5-dichlorophenyl)-2,2,2-trifluoroethyl]amino]carbonyl]-2-(4-fluorophenyl)-1,8-naphthyridine-3-pentanoic acid] fall in the same range of Ki: 2.1 to 20 nM for the first, 2.1 to 20 nM for the second.

`COc1ccc([C@@H](NC(=O)c2cnc3nc(-c4ccc(F)cc4)c(CCCCC(=O)O)cc3c2)C(F)(F)F)cc1` [Compound 6i, 2-(4-fluorophenyl)-6-[[[2,2,2-trifluoro-1(R)-(4-methoxyphenyl)ethyl]amino]carbonyl]-1,8-naphthyridine-3-pentanoic acid] was tested, and the Ki was 20.1 to 200 nM.

Same assay, conditions: values in text

In order of rising Ki:
1. O=C(O)CCCCc1cc2cc(C(=O)N[C@@H]3CCc4cc(Cl)ccc43)ccc2nc1-c1ccc(F)cc1 [Compound 5o, 6-[[(5-chloro-2,3-dihydro-1H-inden-1(R)-yl)amino]carbonyl)-2-(4-fluorophenyl)-3-quinolinepentanoic acid]  2.7 nM
2. C[C@@H](NC(=O)c1ccc2nc(-c3ccc(F)cc3)c(CCCCC(=O)O)cc2c1)c1cc(Cl)cc(Cl)c1 [Compound 5X, 6-[[[1(R)-(3,5-dichlorophenyl)ethyl]amino]carbonyl]-2-(4-fluorophenyl)-3-quinolinepentanoic acid]  5.4 nM
3. O=C(O)CCCCc1cc2cc(C(=O)N[C@@H]3CCCc4cc(Cl)ccc43)cnc2nc1-c1ccc(F)cc1 [Compound 6G, 6-[[(6-chloro-1,2,3,4-tetrahydro-1(R)-naphthalenyl)amino)carbonyl]-2-(4-fluorophenyl)-1,8-naphthyridine-3-pentanoic acid]  6.3 nM
4. O=C(O)CCCCc1cc2cc(C(=O)N[C@@H]3CCCc4ccc(F)cc43)cnc2nc1-c1ccc(F)cc1 [Compound 6H, 2-(4-fluorophenyl)-6-[[(7-fluoro-1,2,3,4-tetrahydro-1(R)-naphthalenyl)amino]carbonyl]-1,8-naphthyridine-3-pentanoic acid]  161 nM

Biological target: T1, hCRTH2
Test: Radioligand Binding Assay B (scintillation proximity assay, [3H]-PGD2, HEK-hCRTH2 membranes)
Conditions: Table B, Radioligand Binding Assay B (SPA), rated A-D
Description: Radioligand binding also was performed using scintillation proximity assay (SPA) technology in a similar way as described above in Radioligand Binding Assay A with minor modification. Assays were done at room temperature in 10 mM HEPES pH 7.4, 1 mM EDTA containing 2 mM MnCl2 and 16 nM [^3H]-PGD2 (PerkinElmer, Waltham, Mass.) (164 Ci mmol^−1), in a final volume of 0.05 mL. Competing ligands were diluted in dimethylsulfoxide (Me2SO) and added using very low volumes (50 nL). The reaction was initiated by the addition of a mixture of 3.52 μg of membrane protein prepared from a human embryonic kidney (HEK)-hCRTH2 cell line adhered to 140 ug of wheatgerm agglutinin SPA beads (PerkinElmer). Total and non-specific binding were determined in the absence and the presence of 10 μM of a CRTH2 antagonist, respectively. The reaction was routinely conducted for 60 min at room temperature followed by centrifugation for 5 minutes at 1000 RPM. The radioactivity was measured with a TopCountNXT (PerkinElmer). Results determined using the SPA-based assay were similar to those from the filtration binding assay.

`C[C@@H](NC(=O)c1ccc2nc(-c3ccccc3)c(CCCCC(=O)O)cc2c1)c1ccc(F)cc1` [Compound 1AH, (R)-5-(6-((1-(4-fluorophenyl)ethyl)carbamoyl)-2-phenylquinolin-3-yl)pentanoic acid] and `CN(Cc1ccc(F)cc1)C(=O)c1ccc2nc(-c3ccccc3)c(CCCCC(=O)O)cc2c1` [Compound 1AK, 5-(6-((4-fluorobenzyl)(methyl)carbamoyl)-2-phenylquinolin-3-yl)pentanoic acid] fall in the same range of Ki: 20.1 to 200 nM for the first, 20.1 to 200 nM for the second.

In the case of `O=C(O)CCCCc1cc2cc(C(=O)N3CC(c4cccc(F)c4)C3)ccc2nc1-c1ccccc1` [Compound 1AJ, 5-(6-(3-(3-fluorophenyl)azetidine-1-carbonyl)-2-phenylquinolin-3-yl)pentanoic acid], the Ki is reported as 2.1 to 20 nM.
